Legend:
[1] = system: ethionine-induced hepatic lipidic infiltration; test: Intoxication by ethionine; type: in vivo; settings: rat, daily oral administration during the 8 days preceding ethionine
Excerpt: Also ethionine administration causes in the rat hepatic damages with respect to hepatocytes, occurring as a massive lipidic infiltration.

[2] = system: pig's lyophilized gastric mucine; test: In vitro mucolytic effect (method of Scheffner)
Excerpt: It has been followed the method described by Scheffner (Ann. N.Y. Acad. Sci. 106, 298, 1963) using as a substrate pig's lyophilized gastric mucine.

[3] = system: hepatic damage caused by α-naphtyl-isothiocyanate; test: Intoxication by α-naphtyl-isothiocyanate; type: in vivo; settings: rat, contemporary oral treatment, 8 days α-naphtyl-isothiocyanate
Excerpt: The hepatic damage caused by 8 days prolonged administration of α-naphtyl-isothiocyanate causes in the rate impairments in respect of cellular proliferation and hypertrophy of periportal spaces.

bronchial secretion = test: In vivo mucolytic effect, sodium fluorescein method (Mawatari); settings: rat, 250 mg/kg intraperitoneal, 5 minutes before sodium fluorescein, determined after 30 minutes
Description: The effect of MR 729 on bronchial secretion has been studied in the rat with the method of sodium fluorescein described by Mawatari (Kagoshima Daigakeu Igakeu Zasshi, 27, 561, 1976).
The product under study has been administered by intraperitoneal route 5 minutes before the solution of sodium fluoroscein, whose amount in the bronchial secretion has been determined after 30 minutes.

[4] = target: T1, angiotensin converting enzyme (ACE) (Homo sapiens, UniProt P12821); test: In vitro inhibition of plasma ACE in normal human serum (method of Summary et al.); type: biochemical; parameters: ID50 (ACE inhibition): unit not given here; settings: for ACE activity: control 30; for % Enzymatic activity: control 100
T1 construct: The plasma ACE has been determined by the method of Summary et al; from tissue; host or cells: normal human serum
Description: The plasma ACE has been determined by the method of Summary et al. (Clin. Sci. 50, 321, 1976) using histidyl-glycyl-histidine as a substrate.
Tests have been carried out with 20 ml of normal human serum.
A 0.1 M aqueous solution of MR 729 has been used.

[5] = system: lipid infiltration experimentally induced by CCl4; test: Intoxication by CCl4, liver lipids; type: in vivo; settings: 12 hours fasting rats, oral route at different doses 2 hours before CCl4, sacrificed after 20 hours
Description: The study has been carried out on 12 hours fasting rats; MR 729 was administered by oral route at different doses 2 hours before carbon tetrachloride. The animals were sacrificed after 20 hours and the liver was removed for the determination of liver lipids.

[6] = system: time of hexobarbital induced sleep; test: Hexobarbital induced sleep in rats intoxicated by carbon tetrachloride; type: in vivo
Description: Since the length of barbiturates induced sleep can be considered directly related to the metabolism rate of these drugs by the liver, it seemed appropiate to assess the influence of MR 729 on the time of hexobarbital induced sleep in rats intoxicated by carbon tetrachloride.
MR 729 has been administered by oral route for 4 consecutive days, at different doses; the animals were then treated with CCl4 and, after 48 hours, with hexobarbital.

liver regeneration = test: Liver regeneration in partially hepathectomized rats; type: in vivo; settings: treated just after operation, assessed after 4 days
Excerpt: This study aimed to evidence whether MR 729 could affect the liver regeneration in partially hepathectomized rats.
The animals have been treated with the product under study just after their operation; the regeneration degree has been assessed after 4 days.

[7] = target: T2, rat hepatic glutathione-peroxidase (GSH-P) (Rattus norvegicus, UniProt P04041); test: In vitro inhibition of glutathione-peroxidase (glutathione/NADPH/GSH-reductase/cumene hydroperoxide system); type: biochemical; settings: concentration 0.025 mM
T2 construct: rat hepatic glutathione-peroxidase (GSH-P); from tissue; host or cells: rat liver
T2 sequence (P04041 1-201): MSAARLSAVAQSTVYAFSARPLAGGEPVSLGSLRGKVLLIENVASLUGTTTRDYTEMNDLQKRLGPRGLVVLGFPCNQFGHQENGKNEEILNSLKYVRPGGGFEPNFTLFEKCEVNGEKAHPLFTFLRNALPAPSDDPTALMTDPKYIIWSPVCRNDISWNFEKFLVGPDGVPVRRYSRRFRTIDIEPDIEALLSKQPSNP
Description: On the ground of these considerations and considering the above described pharmacological results, it has been assessed the efficacy of MR 729 in inhibiting in vitro the rat hepatic glutathione-peroxidase (GSH-P).
It has been used the system glutathione/NADPH/GSH-reductase/cumene hydroperoxide. It was shown that MR 729 inhibits of about 63% the GSH-P, at a concentration of 0.025 mM. The administration of MR 729 allows therefore a saving of endogenous glutathione and a consequent decrease of free peroxides. Compound MR 729 can be administered by oral, parenteral, rectal, aerosolic route in various forms. The compositions below are described as an example: […]

[8] = Acute toxicity after single intraperitoneal administration; settings: mouse, in vivo, ip, mice, 95% confidence limits 307-478
Excerpt: The toxicity of MR 729 after single administration has been studied in mice, by injecting the product at different doses by the intraperitoneal route.

[9] = MR 729 20 μl (0.1 M aqueous solution)
[10] = MR 729 50 μl (0.1 M aqueous solution)
[11] = MR 729 100 μl (0.1 M aqueous solution)

T1 sequence (P12821 30-1232 limits assumed): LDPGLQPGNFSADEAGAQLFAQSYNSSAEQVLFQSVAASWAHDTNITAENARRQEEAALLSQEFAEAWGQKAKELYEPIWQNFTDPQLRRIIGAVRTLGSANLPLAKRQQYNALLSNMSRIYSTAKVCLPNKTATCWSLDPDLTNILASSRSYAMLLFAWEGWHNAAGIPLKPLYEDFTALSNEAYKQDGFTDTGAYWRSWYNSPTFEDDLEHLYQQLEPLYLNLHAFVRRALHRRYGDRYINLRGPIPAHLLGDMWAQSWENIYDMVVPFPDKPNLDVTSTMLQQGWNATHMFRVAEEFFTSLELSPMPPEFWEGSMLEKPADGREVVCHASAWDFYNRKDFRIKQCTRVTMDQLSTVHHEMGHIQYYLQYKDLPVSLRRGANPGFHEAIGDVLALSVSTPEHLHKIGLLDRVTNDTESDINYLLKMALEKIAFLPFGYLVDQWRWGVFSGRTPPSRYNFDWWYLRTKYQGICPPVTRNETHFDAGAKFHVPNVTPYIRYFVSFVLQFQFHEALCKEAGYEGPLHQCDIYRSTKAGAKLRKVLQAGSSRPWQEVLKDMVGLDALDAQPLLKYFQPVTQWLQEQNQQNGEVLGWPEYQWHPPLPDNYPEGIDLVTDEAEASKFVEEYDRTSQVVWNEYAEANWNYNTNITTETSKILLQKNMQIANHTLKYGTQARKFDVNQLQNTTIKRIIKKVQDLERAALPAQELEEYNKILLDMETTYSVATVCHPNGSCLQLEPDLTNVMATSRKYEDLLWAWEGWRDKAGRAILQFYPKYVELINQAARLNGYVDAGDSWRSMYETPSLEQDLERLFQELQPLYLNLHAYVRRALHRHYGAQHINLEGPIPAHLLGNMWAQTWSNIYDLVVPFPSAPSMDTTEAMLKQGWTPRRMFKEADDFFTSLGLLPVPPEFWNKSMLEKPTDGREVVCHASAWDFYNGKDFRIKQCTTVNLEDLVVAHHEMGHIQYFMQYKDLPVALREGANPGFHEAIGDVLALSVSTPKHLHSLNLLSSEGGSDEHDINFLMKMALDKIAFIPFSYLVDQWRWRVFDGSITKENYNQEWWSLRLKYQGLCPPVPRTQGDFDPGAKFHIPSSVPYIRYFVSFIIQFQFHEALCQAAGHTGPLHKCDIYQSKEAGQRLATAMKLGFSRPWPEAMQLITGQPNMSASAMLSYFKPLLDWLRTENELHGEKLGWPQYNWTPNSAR

Q: With `CC(S)C(=O)NCC(=O)N1CSCC1C(=O)O` (stereo not shown) [MR 729, 3-[N-(2-mercapto-propionyl-amino-acetyl)]-tetrahydro-thiazolyl-4-carboxylic acid] as the molecule, how does the “Antagonism of ethionine-induced hepatic lipidic infiltration” value [1] read?
A: effective in antagonizing, with a dose-related intensity, the establishment of this pathology

Q: What about the Decrease of viscosity ([2]; pig gastric mucine, according to the considered dose) of the same molecule?
A: 17-35%

Q: What about the “Mucolytic activity higher than equiponderant doses of N-acetyl-S-cysteine” value ([2]; same experimental conditions, according to the doses) of the same molecule?
A: 35-50%

Q: What about the “Histological examination of biliary ducts and parenchyma” value [3] of the same molecule?
A: structure of biliary ducts in the treated animals was practically unchanged

Q: And the “Inhibition of hepatic pathology caused by α-naphtyl-isothiocyanate” value [3]?
A: inhibits the development of such pathology

Q: And the “Bronchosecretolytic activity relative to carboxymethylcysteine 500 mg/kg i.p.” value (bronchial secretion)?
A: fivefold higher activity

Q: And the ACE activity [4, 9]?
A: 9 nmol/10 min/20 μl

Q: What about the “% Enzymatic activity” value [4, 9] of the same molecule?
A: 30%

Q: And the ACE activity [4, 10]?
A: 7 nmol/10 min/20 μl

Q: What about the “% Enzymatic activity” value [4, 10] of the same molecule?
A: 23%

Q: What about the ACE activity [4, 11] of the same molecule?
A: 3 nmol/10 min/20 μl

Q: What about the “% Enzymatic activity” value [4, 11] of the same molecule?
A: 10%

Q: What about the “ID50 (ACE inhibition)” value ([4]; in vitro, normal human serum, 0.1 M aqueous solution of MR 729) of the same molecule?
A: 60

Q: And the “Inhibition of liver lipid infiltration induced by CCl4” value [5]?
A: able to inhibit, in a dose-dependent way, the lipid infiltration

Q: And the Sleeping times ([6]; oral 4 days, at highest doses)?
A: practically within normal limits

Q: What about the “Inhibition of CCl4-induced prolongation of hexobarbital sleeping time” value ([6]; oral route for 4 consecutive days at different doses, then CCl4, hexobarbital after 48 hours) of the same molecule?
A: inhibits the remarkable prolongation of sleeping time

Q: What about the “Effect on liver regeneration” value (liver regeneration) of the same molecule?
A: acts in a positive way on the regeneration process, without however a clear dose-effect relationship

Q: And the inhibition at 25 µM [7]?
A: ~63%

Q: And the LD50 [8]?
A: 395 mg/kg
